Data on 3 compounds can be found in ChEMBL document CHEMBL3994622, “Design and synthesis of new RAF kinase-inhibiting antiproliferative quinoline derivatives. Part 2: Diarylurea derivatives” (Eur J Med Chem, 2017).

For assay [1], the target named is T1, Serine/threonine-protein kinase B-raf (Homo sapiens, UniProt P15056). Description: Inhibition of human BRAF at 10 uM using MEK1 as substrate in presence of [33P]ATP by Hotspot assay relative to control.
Assay [2] deals with T1, Serine/threonine-protein kinase B-raf. Description: Inhibition of human BRAF using MEK1 as substrate in presence of [33P]ATP by Hotspot assay.
For another assay, the system named is MDA-MB-468. Description: Growth inhibition of human MDA-MB-468 cells assessed as cell growth at 0.1 uM incubated for 48 hrs by sulforhodamine B assay relative to control. Format: functional. The settings on record: MDA-MB-468, 48 h, read-out: Activity.
The subject of assay [3] is SF-268. Description: Growth inhibition of human SF268 cells assessed as cell growth at 0.005 uM incubated for 48 hrs by sulforhodamine B assay relative to control. Format: functional. The settings on record: SF-268, 48 h, read-out: Activity.
A further assay concerns SNB-19. The assay is described as follows: Growth inhibition of human SNB19 cells assessed as cell growth at 0.005 uM incubated for 48 hrs by sulforhodamine B assay relative to control. Format: functional. The settings on record: SNB-19, 48 h, read-out: Activity.
The test system of assay [4] is SK-OV-3. Description: Growth inhibition of human SKOV3 cells assessed as cell growth at 0.005 uM incubated for 48 hrs by sulforhodamine B assay relative to control. Format: functional. The settings on record: SK-OV-3, 48 h, read-out: Activity.
The test system of assay [5] is DU-145. The assay is described as follows: Growth inhibition of human DU145 cells assessed as cell growth at 0.005 uM incubated for 48 hrs by sulforhodamine B assay relative to control. The class given is functional. The note with it: DU-145, 48 h, read-out: Activity.
The subject of assay [6] is MCF7. Description: Growth inhibition of human MCF7 cells assessed as cell growth at 0.005 uM incubated for 48 hrs by sulforhodamine B assay relative to control. The note with it: MCF7, 48 h, read-out: Activity. The class given is functional.
The next assay relates to Hs-578T. The assay is described as follows: Growth inhibition of human Hs 578T cells assessed as cell growth at 0.005 uM incubated for 48 hrs by sulforhodamine B assay relative to control. Format: functional. The note with it: read-out: Activity.
The next assay has as its system HOP-92. The assay is described as follows: Growth inhibition of human HOP92 cells assessed as cell growth at 0.05 uM incubated for 48 hrs by sulforhodamine B assay relative to control. The class given is functional. The note with it: HOP-92, 48 h, read-out: Activity.
Assay [7] deals with COLO 205. The assay is described as follows: Growth inhibition of human COLO205 cells assessed as cell growth at 0.05 uM incubated for 48 hrs by sulforhodamine B assay relative to control. Format: functional. The note with it: COLO 205, 48 h, read-out: Activity.
Assay [8] concerns KM12. Description: Growth inhibition of human KM12 cells assessed as cell growth at 0.05 uM incubated for 48 hrs by sulforhodamine B assay relative to control. The settings on record: KM12, 48 h, read-out: Activity. Format: functional.
In assay [9] the test system is MCF7. Description: Growth inhibition of human MCF7 cells assessed as cell growth at 0.05 uM incubated for 48 hrs by sulforhodamine B assay relative to control. Format: functional. The note with it: MCF7, 48 h, read-out: Activity.
In another assay the test system is MDA-MB-231. Description: Growth inhibition of human MDA-MB-231 cells assessed as cell growth at 0.05 uM incubated for 48 hrs by sulforhodamine B assay relative to control. The class given is functional. The note with it: MDA-MB-231, 48 h, read-out: Activity.
The test system of a further assay is RPMI-8226. The assay is described as follows: Growth inhibition of human RPMI8226 cells assessed as cell growth at 0.5 uM incubated for 48 hrs by sulforhodamine B assay relative to control. Format: functional. The note with it: RPMI-8226, 48 h, read-out: Activity.
The subject of a further assay is NCI-H460. The assay is described as follows: Growth inhibition of human NCI-H460 cells assessed as cell growth at 0.5 uM incubated for 48 hrs by sulforhodamine B assay relative to control. The class given is functional. The note with it: NCI-H460, 48 h, read-out: Activity.
Another assay deals with NCI-H522. The assay is described as follows: Growth inhibition of human NCI-H522 cells assessed as cell growth at 0.5 uM incubated for 48 hrs by sulforhodamine B assay relative to control. The settings on record: NCI-H522, 48 h, read-out: Activity. The class given is functional.
Assay [10] relates to KM12. The assay is described as follows: Growth inhibition of human KM12 cells assessed as cell growth at 0.5 uM incubated for 48 hrs by sulforhodamine B assay relative to control. The class given is functional. The settings on record: KM12, 48 h, read-out: Activity.
Assay [11] deals with SF-268. Description: Growth inhibition of human SF268 cells assessed as cell growth at 0.5 uM incubated for 48 hrs by sulforhodamine B assay relative to control. Format: functional. The settings on record: SF-268, 48 h, read-out: Activity.
For the next assay, the system named is OVCAR-5. Description: Growth inhibition of human OVCAR5 cells assessed as cell growth at 0.5 uM incubated for 48 hrs by sulforhodamine B assay relative to control. The class given is functional. The settings on record: OVCAR-5, 48 h, read-out: Activity.
The test system of assay [12] is SK-OV-3. Description: Growth inhibition of human SKOV3 cells assessed as cell growth at 0.5 uM incubated for 48 hrs by sulforhodamine B assay relative to control. The class given is functional. The settings on record: SK-OV-3, 48 h, read-out: Activity.
The subject of assay [13] is DU-145. Description: Growth inhibition of human DU145 cells assessed as cell growth at 0.5 uM incubated for 48 hrs by sulforhodamine B assay relative to control. The note with it: DU-145, 48 h, read-out: Activity. Format: functional.
The next assay relates to K562. The assay is described as follows: Growth inhibition of human K562 cells assessed as cell growth at 5 uM incubated for 48 hrs by sulforhodamine B assay relative to control. The class given is functional. The note with it: K562, 48 h, read-out: Activity.
For the next assay, the system named is A549. Description: Growth inhibition of human A549/ATCC cells assessed as cell growth at 5 uM incubated for 48 hrs by sulforhodamine B assay relative to control. The class given is functional. The settings on record: A549, 48 h, read-out: Activity.
The test system of assay [14] is COLO 205. Description: Growth inhibition of human COLO205 cells assessed as cell growth at 5 uM incubated for 48 hrs by sulforhodamine B assay relative to control. Format: functional. The settings on record: COLO 205, 48 h, read-out: Activity.
The test system of the next assay is M14. Description: Growth inhibition of human M14 cells assessed as cell growth at 5 uM incubated for 48 hrs by sulforhodamine B assay relative to control. Format: functional. The note with it: M14, 48 h, read-out: Activity.
A further assay deals with UACC-257. The assay is described as follows: Growth inhibition of human UACC257 cells assessed as cell growth at 5 uM incubated for 48 hrs by sulforhodamine B assay relative to control. The class given is functional. The settings on record: UACC-257, 48 h, read-out: Activity.
The subject of another assay is SN12C. Description: Growth inhibition of human SN12C cells assessed as cell growth at 5 uM incubated for 48 hrs by sulforhodamine B assay relative to control. Format: functional. The settings on record: read-out: Activity.
Another assay deals with NCI-H322M. The assay is described as follows: Growth inhibition of human NCI-H322M cells assessed as cell growth at 50 uM incubated for 48 hrs by sulforhodamine B assay relative to control. The class given is functional. The settings on record: read-out: Activity.
A further assay has as its system HT-29. The assay is described as follows: Growth inhibition of human HT-29 cells assessed as cell growth at 50 uM incubated for 48 hrs by sulforhodamine B assay relative to control. The class given is functional. The note with it: HT-29, 48 h, read-out: Activity.
The next assay has as its system U-251. Description: Growth inhibition of human U251 cells assessed as cell growth at 50 uM incubated for 48 hrs by sulforhodamine B assay relative to control. The class given is functional. The settings on record: U-251, 48 h, read-out: Activity.
The test system of a further assay is TK-10. Description: Growth inhibition of human TK10 cells assessed as cell growth at 50 uM incubated for 48 hrs by sulforhodamine B assay relative to control. The class given is functional. The settings on record: TK-10, 48 h, read-out: Activity.
Another assay deals with UO-31. Description: Growth inhibition of human UO31 cells assessed as cell growth at 50 uM incubated for 48 hrs by sulforhodamine B assay relative to control. Format: functional. The note with it: UO-31, 48 h, read-out: Activity.
The subject of assay [15] is DU-145. Description: Growth inhibition of human DU145 cells assessed as cell growth at 50 uM incubated for 48 hrs by sulforhodamine B assay relative to control. The class given is functional. The settings on record: DU-145, 48 h, read-out: Activity.

T1 sequence (P15056 whole entry): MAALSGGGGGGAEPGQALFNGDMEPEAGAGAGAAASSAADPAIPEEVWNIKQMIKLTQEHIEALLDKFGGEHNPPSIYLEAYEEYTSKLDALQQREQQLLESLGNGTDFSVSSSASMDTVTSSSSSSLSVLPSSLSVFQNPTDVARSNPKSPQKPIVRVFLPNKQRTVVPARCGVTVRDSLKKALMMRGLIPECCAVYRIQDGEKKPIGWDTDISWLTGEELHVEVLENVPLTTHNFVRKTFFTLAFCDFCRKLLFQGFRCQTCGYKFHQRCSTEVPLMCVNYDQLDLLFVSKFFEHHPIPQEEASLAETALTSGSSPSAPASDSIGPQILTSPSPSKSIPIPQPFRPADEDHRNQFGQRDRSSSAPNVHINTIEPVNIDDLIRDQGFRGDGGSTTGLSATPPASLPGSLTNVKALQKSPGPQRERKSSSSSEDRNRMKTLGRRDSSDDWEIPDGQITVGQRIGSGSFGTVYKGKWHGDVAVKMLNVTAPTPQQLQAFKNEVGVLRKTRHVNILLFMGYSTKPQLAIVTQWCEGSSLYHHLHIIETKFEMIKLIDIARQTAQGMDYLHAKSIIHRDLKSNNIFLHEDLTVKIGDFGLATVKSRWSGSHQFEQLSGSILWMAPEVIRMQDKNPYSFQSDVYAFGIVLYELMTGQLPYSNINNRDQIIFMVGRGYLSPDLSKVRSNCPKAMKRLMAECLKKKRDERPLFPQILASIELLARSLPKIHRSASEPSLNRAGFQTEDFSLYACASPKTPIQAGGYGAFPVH

With `COc1cc2cc(Oc3ccc(NC(=O)Nc4ccc(Cl)c(C(F)(F)F)c4)cc3)c(C)nc2cc1OC`, the inhibition in assay [1] worked out at 74.2%. Further, in [2], the concentration for half-maximal inhibition (IC50) was determined as 1330 nM.

In the case of `COc1cc2cc(Oc3ccc(NC(=O)Nc4cc(C(F)(F)F)cc(C(F)(F)F)c4)cc3)c(C)nc2cc1OC`, the growth at 0.1 µM in the assay with MDA-MB-468 is 104%.

Regarding `COc1cc2cc(Oc3ccc(NC(=O)Nc4cccc(C(F)(F)F)c4)cc3)c(C)nc2cc1OC`, the growth at 0.005 µM was 90% in the assay on SF-268 [3]; 92% with SNB-19; 98% with SK-OV-3 [4]; 103% with DU-145 [5]; 90% with MCF7 [6]; 90% with Hs-578T. Also, the growth at 0.05 µM with HOP-92 is 96%; in the assay with COLO 205 [7] it was 94%; in the assay on KM12 [8], 89%; in the assay on MCF7 [9] it was 91%; with MDA-MB-231, 95%. For the same compound, the growth at 0.5 µM with RPMI-8226 amounted to 86%; in the assay with NCI-H460, 96%; with NCI-H522, 90%; in the assay on KM12 [10] it was 88%; with SF-268 [11], 96%; with OVCAR-5, 119%. The figures for the growth at 0.5 µM in the assay with SK-OV-3 [12] and in the assay on DU-145 [13] were 101% and 104%, respectively. The growth at 5 µM was 13% in the assay on K562; 9% in the assay on A549; -48% with COLO 205 [14]; 14% in the assay on M14; -13% with UACC-257; 22% in the assay on SN12C. The growth at 50 µM with NCI-H322M was -29%; with HT-29 it was -99%; in the assay with U-251, -99%; in the assay with TK-10 it was -46%; in the assay with UO-31, -24%; with DU-145 [15], -32%.
